Laboratory results published in article PMC2858983 (Clinical cancer research : an official journal of the …, 2010).
Where a name gives a salt, the structure may show the parent alone.

Molecular target: inducible nitric oxide synthase (iNOS) (Homo sapiens, UniProt P35228)
Test: NO release
Assay type: cell-based

Sequence of inducible nitric oxide synthase (iNOS) (P35228 whole entry): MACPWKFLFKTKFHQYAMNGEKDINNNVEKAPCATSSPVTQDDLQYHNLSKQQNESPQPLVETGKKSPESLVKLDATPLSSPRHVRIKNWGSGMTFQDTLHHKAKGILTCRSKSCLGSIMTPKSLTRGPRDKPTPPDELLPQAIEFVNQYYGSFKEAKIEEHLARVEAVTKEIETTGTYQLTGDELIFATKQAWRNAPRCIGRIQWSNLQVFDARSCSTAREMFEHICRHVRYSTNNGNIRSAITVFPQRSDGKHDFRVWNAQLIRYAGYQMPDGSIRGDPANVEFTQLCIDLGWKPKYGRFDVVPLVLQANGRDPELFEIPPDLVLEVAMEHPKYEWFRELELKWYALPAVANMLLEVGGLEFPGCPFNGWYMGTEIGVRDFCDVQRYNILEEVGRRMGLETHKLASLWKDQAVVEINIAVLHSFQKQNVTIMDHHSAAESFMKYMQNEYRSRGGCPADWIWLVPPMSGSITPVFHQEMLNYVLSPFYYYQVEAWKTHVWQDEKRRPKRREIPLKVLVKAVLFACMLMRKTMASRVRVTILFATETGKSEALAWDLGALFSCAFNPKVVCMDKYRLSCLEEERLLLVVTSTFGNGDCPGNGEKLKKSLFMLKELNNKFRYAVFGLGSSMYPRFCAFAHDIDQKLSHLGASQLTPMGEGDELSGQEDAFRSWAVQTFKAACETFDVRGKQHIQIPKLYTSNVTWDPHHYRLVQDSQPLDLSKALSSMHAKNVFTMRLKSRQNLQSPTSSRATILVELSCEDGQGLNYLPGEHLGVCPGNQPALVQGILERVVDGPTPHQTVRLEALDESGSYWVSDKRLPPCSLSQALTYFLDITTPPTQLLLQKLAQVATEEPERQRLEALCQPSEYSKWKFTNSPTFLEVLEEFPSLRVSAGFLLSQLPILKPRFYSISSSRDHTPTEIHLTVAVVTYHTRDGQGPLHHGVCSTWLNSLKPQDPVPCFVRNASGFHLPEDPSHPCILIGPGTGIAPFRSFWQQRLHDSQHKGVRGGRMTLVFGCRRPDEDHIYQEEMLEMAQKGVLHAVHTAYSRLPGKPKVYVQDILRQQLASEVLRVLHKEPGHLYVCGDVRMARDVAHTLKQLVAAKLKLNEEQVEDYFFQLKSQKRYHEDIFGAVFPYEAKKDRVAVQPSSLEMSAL

## CC(=N)NCCCC[C@H](N)C(=O)O [L-nil, N6-(1-Iminoethyl)-L-lysine-dihydrochloride]
  IC50: 595 µM
